Marks after values point to notes of the source that are not given here. Blank lines part the entries; values can stand above or below the compound they belong to.
Columns and labels:
[1] = test system: human PMN migration across T84 epithelial monolayers; experiment: Effect of inhibitors on baseline and LXA4-elicited PMN transepithelial migration, apical-to-basolateral; format: cell-based
[2] = test system: human PMN migration across inverted T84 epithelial monolayers; experiment: PMN transepithelial migration assay, basolateral-to-apical direction (inverted monolayers), fMLP gradient, myeloperoxidase readout; format: cell-based; conditions: for inhibition of PMN migration, basolateral-to-apical (total MPO activity): 10 nM, 15 min pre-incubation 37°C, 1 μM fMLP, 120 min
Experimental: Cell culture Approximately 350 epithelial monolayers were used for these studies. T84 intestinal epithelial cells (passages 70-95) were grown and maintained as confluent monolayers on collagen coated permeable support. Monolayers were grown on 0.33 cm^2 ring-supported polycarbonate filters (Costar Corp., Cambridge, Mass.) and utilized 6-14 days after plating as described in Example 2. Transepithelial resistance to passive ion flow was measured as described in Parkos C. A., et al. (1991). J. Clin. Invest. 88: 1605-1612); and Parkos C. A., et al. (1992). J. Cell. Biol. 117: 757-764). Inverted monolayers used to study migration of PMN in the basolateral-to-apical direction were constructed as described in Parkos C. A., et al. (1991). J. Clin. Invest. 88:1605-1612).
Migration assay: The PMN transepithelial migration assay has been detailed in Nash S., et al. (1987). J. Clin. Invest. 80: 1104-1113; Nash S., et al. (1991). J. Clin. Invest 87: 1474-1477); Parkos C. A., et al. (1991). J. Clin. Invest. 88: 1605-1612); and Parkos C. A., et al. (1992). J. Cell. Biol. 117: 757-764. Briefly, human PMN were isolated from normal human volunteers and suspended in modified HBSS (without Ca^2+ and Mg^2+, with 10 mM Hepes, pH 7.4, Sigma) at a concentration of 5×10^7/ml. Prior to addition of PMN, T84 monolayers were extensively rinsed in HBSS to remove residual serum components. Migration assays were performed by the addition of PMN (40 μl) to HBSS ([…]) in the upper chambers after chemoattractant (1 μM fMLP in HBSS) was added to the opposing (lower) chambers. Unless otherwise indicated, PMN were not washed free of LXA4 prior to addition to monolayers, and therefore, a five-fold dilution of lipoxin was present during the migration assay. For apical-to-basolateral migration experiments, PMN (2×10^6) were added at time 0. Migration in the basolateral-to-apical direction, while qualitatively similar, is substantially more efficient than in the apical-to-basolateral direction. (Parkos C. A., et al. (1991). J. Clin. Invest. 88: 1605-1612). Therefore, 5-fold fewer PMN (4×10^5) were added when migration proceeded in the basolateral-to-apical direction in order that baseline migration signals be approximately equivalent in both directions. (Parkos C. A., et al. (1991). J. Clin. Invest. 88: 1605-1612). Migration was allowed to proceed for 120 minutes, unless otherwise noted. All PMN transepithelial migration experiments were performed in a 37° C. room to ensure that epithelial monolayers, solutions, plasticware, etc., were maintained at uniform 37° C. temperature.
Migration was quantitated by assaying for the PMN azurophilic granule marker myeloperoxidase (MPO) as described previously (Parkos C. A., et al. (1991). J. Clin. Invest 88: 1605-1612). Following each migration assay, non-adherent PMN were extensively washed from the surface of the monolayer and PMN cell equivalents (PMN CE), estimated from a standard curve, were assessed as the number of PMN's associated with the monolayer, the number which had completely traversed the monolayer (ie. across the monolayer into the reservoir bath), as well as the total number of transmigrating PMN (the sum of monolayer and reservoir-associated PMN).
Data Presentation: Individual experiments were performed using large numbers of uniform groups of monolayers and PMN from individual blood donors on individual days. PMN isolation was restricted to five different blood donors (repetitive donations) over the course of these studies. Myeloperoxidase assay data were compared by two-factor analysis of variance (ANOVA) or by comparison of means using Student's t-Test PMN migration results are represented as PMN CE derived from a daily standard PMN dilution curve. Monolayer-associated PMN are represented as the number of PMN CE per monolayer and reservoir-associated PMN (ie. PMN which had completely traversed the monolayer into the lower chamber) are represented as the number of PMN CE/ml (total volume of 1 ml). […]

[3] = test system: neutrophil transmigration across T84 monolayers; experiment: Neutrophil migration across inverted T84 monolayers (basolateral to apical), myeloperoxidase assay, Example 2; format: cell-based, human; conditions: FMLP 10^−6 M, PMN 6 × 10^6/cm^2
Excerpt: (§1) Preparation of monolayers: Normal or inverted monolayers can be constructed for a physiological microassay using the commercially available insert system (Costar inserts, 0.33 cm^2, 5 μm polycarbonate filters). The larger pore size is crucial for allowing neutrophils to penetrate the filter. Collagen 1 must coat the filters to allow attachment of T84 cells. Original descriptions of the collagen coat involved procedures in which the collagen was chemically crosslinked Dharmsathaphorn, K. et al; Meth. Enzymol. 192:354-389; 1990. Dharmsathaphom, K. et al; Am. J. Physiol. 246 (Gastrointest. Liver Physiol. 9):G204-G208; 1984.
Inverted monolayers can also be grown using this technique. For this 0.8 mm thick lexan rings having the same dimension of the base of Costar inserts are machined, deburred, cleaned by boiling with a trace of detergent and subsequently exhaustively washed, and attached to the underside of the insert using General Electric RTV Silicone glue (this underside ring is necessary for a peripheral electrical seal). After drying overnight, the inserts are sterilized by submersion in 70% ethanol (4-hr overnight), inverted onto a sterile petri dish in a hood, and allowed to dry. Collagen and cells are added to the filter (underside now facing up) exactly as with unmodified inserts and cells are allowed to attach for 4 hours before righting the inserts into the 24 well holding plates. Subsequent treatment of the monolayers is identical to that described above.
(§2) Isolation of neutrophils: Neutrophils are isolated from whole blood using a gelatin-sedimentation technique. Briefly, whole blood, anticoagulated with citrate/dextrose, is centrifuged at 300×g for 20 minutes (20° C.). The plasma and buffy coat are carefully removed using a curved, siliconized glass pipette which is attached to a vacuum trap. […]
Myeloperoxidase assay of neutrophil transepithelial migration: PMN contents of monolayers and lower chambers can be quantitated by assaying the PMN-specific azurophil granule marker, myeloperoxidase (MPO). […]

[4] = test system: neutrophil transmigration across T84 monolayers; experiment: Neutrophil transmigration across T84 monolayers by resistance or myeloperoxidase assay, Example 2; format: cell-based, human; conditions: fMLP 10^−6 and 10^−7 M
Excerpt: as §1
as §2, with “trap. Care must be taken not to aspirate the interface between the buffy coat and RBC since this is where PMN reside.” for “trap.”
For measurements, bridges are positioned as described, and the spontaneous transepithelial electrical potential and the instantaneous potential generated by passing 25 μA of current are measured. […] Using these values and Ohm's Law, tissue resistance and transepithelial current are then calculated. […]

Compound: CC(C)c1ccc2c(c1)c(SC(C)(C)C)c(CC(C)(C)C(=O)O)n2Cc1ccc(Cl)cc1 [MK886]
effect on LXA4-elicited increase in PMN transepithelial migration ([1]; MK886 10 ng/ml): did not effect
effect on baseline fMLP driven PMN migration ([1]; MK886 10 ng/ml): did not alter

Compound: pertussis toxin
inhibition of control, LXA4-elicited migration ([1]; PMN pre-exposed to pertussis toxin 2 μg/ml, then LXA4): 87±4%
inhibition of baseline fMLP driven migration compared to vehicle control ([1]; pertussis toxin 2 μg/ml): 91±8%

Compound: CC1CNCCN1S(=O)(=O)c1cccc2cnccc12 (stereo not shown) [Compound H7]
inhibition of PMN transepithelial migration compared to vehicle control ([1]; H7 100 μM final concentration): 91±4%

effect on PMN migration in basolateral-to-apical direction [2]: no effect
inhibition of PMN migration, basolateral-to-apical (total MPO activity) [2]: 7±4%
Compound: CCCCC[C@H](O)[C@H](O)/C=C/C=C/C=C\C=C\[C@@H](O)CCCC(=O)O (relative stereo) [LXB4, (5S, 14R, 15S)-trihydroxy-6,10,12-trans-8-cis-eicosatetraenoic acid]

inhibition of PMN migration, basolateral-to-apical (total MPO activity) [2]: 16±6%
Compound: CCCCCC(O)C=CC=CC=CC=CC(O)C(O)CCCC(=O)O (stereo not drawn) [11-trans-LXA4]

Compound: N-formyl-Met-Leu-Phe [fMLP]
Neutrophil Cell Equivalents In Monolayers [3]: 5.47 × 10^4
Neutrophil Cell Equivalents In Opposite Reservoir [3]: 85.30^# × 10^4
Neutrophil Cell Equivalents Total [3]: 90.77^# × 10^4
stimulation of neutrophil transmigration [4]: effective in stimulating transmigration

Compound: COc1ccc2c(c1)c(CC(=O)O)c(C)n2C(=O)c1ccc(Cl)cc1 [indomethacin]
baseline PMN migration, % vehicle control ([1]; indomethacin 50 μM, 15 min, 37°C, fMLP gradient): 109±13 % vehicle control

From patent US8440718B2, “Modulation of inflammation related to columnar epithelia” (The Brigham and Women's Hospital, Inc., priority 1991, dated 2013)
